A melting point compilation (Tetko et al.; mined from patent text by program, amines drawn as free bases though some values may be those of a salt)

`Cc1c(Sc2ccc(Cl)cc2)c2cc(S(C)(=O)=O)ccc2n1CC(=O)O` showed a melting point of 185 to 187 °C. Molecule `O=C(c1ccc(F)cc1F)N1Cc2cccnc2Nc2ccccc21` has a melting point of 161 to 163 °C. Molecule `CC1(C)CC(=O)C(C(=O)Nc2cccc(C(F)(F)F)c2)C(=O)C1` has a melting point of 116 to 117 °C. Work on `COc1cccc(SCCC(=O)O)c1` yielded a melting point of 39 to 42 °C. `Cc1nc(N2CCN(CC(C)C)C2=O)sc1C(=O)NCc1ccncc1` showed a melting point of 185 to 187 °C. `CCCCCCCCC#Cc1ccc(C(=O)O)cc1` showed a melting point of 103 °C. `COc1ccc(CNc2nnc(Cl)c3cc(Cl)c(Cl)cc23)cc1Cl` showed a melting point of 208 to 209 °C. `COC(=O)c1cc(Br)c(C=O)o1` showed a melting point of 83 to 84 °C. Molecule `CCCCc1nc2c(N)nc3ccc(OCc4ccccc4)cc3c2n1CCCCNC(=O)Nc1ccccc1` has a melting point of 190 to 194 °C. With `c1ccc(-c2ccn3nccc3n2)cc1` the melting point was 122 to 124 °C. For `CCCCOc1ccc(S(=O)(=O)C2(C(=O)O)CCN(CC)CC2)cc1`, the melting point was 162 °C. For `CCCc1ccn(-c2ccc(S(C)(=O)=O)cc2)c1-c1ccc(F)cc1`, the melting point was 116 to 117 °C. `CC(C)OCN1CCN(Cc2ccc(Cl)nc2)C1=NC#N` gave a melting point of 85 to 87 °C. `COC(=O)C1=C(C(OC)OC)NC(C)=C(C(=O)OC(C)C)C1c1ccccc1[N+](=O)[O-]` (stereo not given) gave a melting point of 143 to 145 °C. With `CCCN(CCCCc1c[nH]c2ccc(F)cc12)C1COc2c(F)ccc(C(N)=O)c2C1` (stereo not given) the melting point was 115 °C. For `N#CCc1cccc(CBr)c1[N+](=O)[O-]`, the melting point was 71 to 73 °C. For `CNC(=O)c1cc(C#N)cc(C)c1NC(=O)c1cc(Br)nn1-c1ccccc1Cl`, the melting point was 242 to 243 °C. For `O=C1Nc2cccnc2N(C(=O)CN2CCN(CCO)CC2)c2ccccc21`, the melting point was 197 to 200 °C. `CCOC(=O)c1cc(C)c2c(c1)c1ccccc1n2Cc1ccccc1` gave a melting point of 118 to 119 °C. In the case of `FC(F)(F)c1cc2ccccc2n1Cc1ccccc1`, the melting point is reported as 20 °C. Work on `CS(=O)(=O)c1ccc(C(=O)C2C(=O)CCC(S(C)(=O)=O)C2=O)c(Cl)c1` (stereo not given) yielded a melting point of 175 to 180 °C. For `Nc1ccc(Oc2ccc([N+](=O)[O-])cc2)cn1`, the melting point was 132 to 135 °C. `COC(=O)C(O)CCNc1ncc(N)cc1N` (stereo not given) showed a melting point of 229 to 230 °C. In the case of `C[Si](C)(C)CCCSCCCNC(=O)n1cc(F)c(=O)[nH]c1=O`, the melting point is reported as 105 to 106 °C. `O=c1ccoc2ccc(OCCCCCl)cc12` gave a melting point of 75 to 77 °C. `CS(=O)(=O)c1ccccc1C#N` showed a melting point of 105 to 106 °C. In the case of `CS(=O)(=O)OCCn1c2ccc(O)cc2c2c3c(c(-c4ccccc4)cc21)C(=O)NC3=O`, the melting point is reported as 271 to 276 °C. Molecule `CNC(=NO)Nc1ccccc1` has a melting point of 95 to 96 °C. `NCCCCCCCNC(=O)OCc1ccccc1` showed a melting point of 78 to 80 °C. For `COc1ccc(-c2nc(CCCCCc3nnn[nH]3)oc2-c2ccc(OC)cc2)cc1`, the melting point was 150 °C. In the case of `NCCC(O)c1ccccc1` (stereo not given), the melting point is reported as 92 to 94 °C. In the case of `COc1cccc(CCCC(=O)O)c1OC`, the melting point is reported as 58 to 59 °C. In the case of `N#CC(Nc1ccccc1C(=O)C1CC1)c1c(Cl)cccc1Cl` (stereo not given), the melting point is reported as 144 °C. For `CS(=O)c1ccc(-c2nc(=O)c3ccccc3s2)cn1` (stereo not given), the melting point was 195 to 196 °C. In the case of `Nc1cc(Cl)cc(Cl)c1C(=O)NCc1ccccc1F`, the melting point is reported as 154 to 158 °C. Work on `N/C(=C1/Sc2ccccc2C1=O)c1ccc(F)cc1` yielded a melting point of 158 °C. `O=S(CCCCCOc1ccc(C2=C(c3ccccc3)CCCc3cc(O)ccc32)cc1)CCCC(F)(F)C(F)(F)F` (stereo not given) gave a melting point of 138 to 140 °C. `CCOC(=O)c1cnc(Nc2ccccc2F)[nH]c1=O` showed a melting point of 250 to 252 °C. For `CC1NC(=O)NN=C1c1ccc(C#N)cc1` (stereo not given), the melting point was 268 to 269 °C. In the case of `CCCC(=O)Nc1nn(COCC[Si](C)(C)C)c2cc(-c3ccc(SC)cc3)ccc12`, the melting point is reported as 225 °C. For `O=S1(=O)NCN(C2CCCCCCC2)c2cc(Cl)ccc21`, the melting point was 141 to 143 °C. For `CC(C)OC(=O)N1CCC(c2nc3cc(-c4ccc(C(F)F)cc4)ccc3o2)CC1`, the melting point was 151 to 154 °C. `O=[N+]([O-])c1cccc(-c2cc3c(O)ncnc3o2)c1` showed a melting point greater than 300 °C. With `O=S(=O)(NCCCN1CCC(Oc2ccc(F)c(F)c2)CC1)c1ccc(-c2ccccn2)s1` the melting point was 128 to 129 °C. Work on `ClCc1cn2cc(Br)ccc2n1` yielded a melting point of 125 to 126 °C. With `CC(C)(C#N)c1cc(C=Cc2ccc(OS(N)(=O)=O)cc2)cc(Cn2cncn2)c1` the melting point was 151 to 152 °C. In the case of `CCOC(=O)C1C(=O)Nc2ccccc2SC1c1ccc(Cl)cc1` (stereo not given), the melting point is reported as 206 °C. With `Oc1cc(-c2ncc(C(F)(F)F)cc2F)c(F)cc1Cl` the melting point was 94 to 96 °C. For `CC1(C)CC(C)(c2ccc(O)cc2)c2cc(O)ccc21` (stereo not given), the melting point was 202 °C. Work on `COC(=O)COc1ccc(C(=O)NN(C)C(=O)c2ccc(C(N)=S)cc2)cc1` yielded a melting point of 169 to 170 °C. Molecule `CC1=C(c2ccncc2)SC(O)C(=O)N1` (stereo not given) has a melting point of 214 °C. `C=CCc1c(C)nc(C)nc1NCc1ccc(-c2ccccc2-c2nnn[nH]2)cc1` gave a melting point of 259 to 260 °C. In the case of `O=C1CCC(CCN2CC=C(c3ccccc3)CC2)CC1`, the melting point is reported as 94 to 96 °C. `CS(=O)(=O)c1ccccc1[N+](=O)[O-]` gave a melting point of 102 to 104 °C. In the case of `Nc1nc(-c2cccc3ccccc23)co1`, the melting point is reported as 155 to 162 °C. In the case of `C=C1N(c2cccc3ccccc23)C(=O)OC12CCN(CCC=C(c1ccc(F)cc1)c1ccc(F)cc1)CC2`, the melting point is reported as 99 to 101 °C. Molecule `Fc1ccc(Cn2c(NC3CCN(CCSc4ncccn4)CC3)nc3ccccc32)cc1` has a melting point of 146 to 148 °C. `Cc1oc(-c2ccccc2)nc1CCOc1ccc(C[C@H](OC(C)C)C(=O)O)c2sccc12` gave a melting point of 167 to 168 °C. With `CN(C)c1ccc(S(=O)c2ccccc2)cc1N` (stereo not given) the melting point was 85 to 86 °C. Work on `Cc1cccc(NC(=O)NC2CC(c3ccccc3)c3ccccc3N(CC(=O)NC(C)(C)C)C2=O)c1` (stereo not given) yielded a melting point of 263 to 266 °C. Work on `O=C(Nc1cc(-c2ccc(Cl)cc2)on1)c1c(Cl)cccc1Cl` yielded a melting point of 228 to 229 °C. With `ONCc1cccc(I)c1` the melting point was 63 to 70 °C. `CNc1nc(-c2cccc(CCc3ccccc3)c2)c2cc(OC)c(OC)cc2n1` gave a melting point of 95 to 97 °C. Molecule `CCN1C(=O)CCc2cnc(Nc3ccccc3)cc21` has a melting point of 137 to 138 °C. Work on `COc1cccc(Cc2ccc(-c3cnn4c(O)ccnc34)cc2)c1` yielded a melting point of 246 to 249 °C. `CN(C)S(=O)(=O)c1c(S(N)(=O)=O)ccn1C` gave a melting point of 146 to 148 °C. In the case of `OCCCNc1ccnc(Cl)n1`, the melting point is reported as 113 to 114 °C. `O=C(N[C@@H]1CC(=O)N(Cc2ccccc2)C1=O)OCc1ccccc1` showed a melting point of 143 to 144 °C. `CC(C)[C@H](NC(=O)[C@@H](C)c1ccc(Nc2nc(C(F)(F)F)cs2)cc1)C(=O)O` showed a melting point of 99 to 101 °C. Molecule `O=C(OC1CCCCC1)c1ncn2c1[C@@H]1CCN1C(=O)c1cc(F)ccc1-2` has a melting point of 231 to 232 °C. In the case of `CCOC(=O)C1=C(NC(=O)Nc2cc(C(=O)OC(C)C)c(Br)cc2Cl)CCC1`, the melting point is reported as 131 to 132 °C. `Cc1nc(-c2ccc(-c3cnc4[nH]c(=O)n(CC5CCCCC5)c4n3)cc2)n[nH]1` showed a melting point of 315 to 318 °C. With `CCNc1nc2n(n1)CCc1ccccc1-2` the melting point was 100 to 101 °C. For `CCCCOc1cccc(C[C@H](NC(C)=O)[C@H](O)CNCc2cccc(CC)c2)c1`, the melting point was 112 to 114 °C. `O=C(O)c1cn(Cc2c(F)cccc2Cl)nn1` gave a melting point of 274 to 276 °C.
